Data reported in patent US20240335443A1, “IMIDAZOLOPYRIDAZINE OR PYRAZOLOPYRIMIDINE COMPOUNDS AND COMPOSITIONS” (Anrui Biomedical Technology (Guangzhou) Co., Ltd., priority 2021, published 2024).
Where two headings read alike, the source gives them in different places.

How the values were obtained:
[1] = system: IL-23 induced STAT3 in HEK-Blue™ IL-23 cells; test: IL-23 induced STAT3 QUANTI-Blue reporter assay in HEK-Blue IL-23 cells; format: cell-based; settings: IL-23 0.1 ng/mL, SEAP levels, class symbols, read-out: IL23 reporter assay (IC50 nM)
Procedure, shortened: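 HEK-Blue IL-23 cells, 5000/well, preincubated with compound 1 h at 37 °C, then stimulated overnight with IL-23 at 0.1 ng/mL final. Supernatant mixed with QUANTI-Blue for 2 h at 37 °C and secreted SEAP read out.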

[2] = target: T1, N-terminal His-tagged TYK2 pseudokinase domain (Homo sapiens, UniProt P29597); test: TYK2 JH2 domain SPA binding assay; settings: displacement of H3 probe (20 nM), 30 min room temperature; class symbols
T1 construct: the N-terminal His-tagged TYK2 pseudokinase domain; His (N); purchased Pharmaron
Protocol: TYK2 JH2 Domain Binding Assay
After incubating at room temperature for 30 min, the inhibition was calculated by the displacement of [3H] 3 binding as determined by scintillation counting. Dose-response curves were generated to determine the concentration required to inhibit H3 probe binding by […] (IC50).

[3] = HEK-Blue IL-23, HEK-Blue IL-23 cells

T1 sequence (P29597 589-875 limits assumed): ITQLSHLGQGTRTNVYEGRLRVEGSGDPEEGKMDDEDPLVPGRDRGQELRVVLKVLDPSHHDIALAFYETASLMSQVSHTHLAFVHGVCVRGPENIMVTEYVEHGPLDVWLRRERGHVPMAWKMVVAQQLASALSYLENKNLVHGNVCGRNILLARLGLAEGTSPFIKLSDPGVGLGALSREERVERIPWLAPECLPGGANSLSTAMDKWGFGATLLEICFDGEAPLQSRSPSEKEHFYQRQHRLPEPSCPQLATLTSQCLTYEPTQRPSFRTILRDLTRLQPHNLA

Row | SMILES | IC50 [1, 3] | IC50 [2] | IC50 ([1]; HEK-Blue IL-23 cells)
1 | CNc1cc(Nc2cccn(C3C[C@H]4CC[C@@H](C3)O4)c2=O)nn2c(C(=O)N[C@@H]3C[C@H]4CCO[C@H]43)cnc12 (stereo partly drawn) [Compound 13, 6-((1-(cis-8-oxabicyclo[3.2.1]octan-3-yl)-2-oxo-1,2-dihydropyridin-3-yl)amino)-N-((1R,5S,7R)-2-oxabicyclo[3.2.0]heptan-7-yl)-8-(methylamino)imidazo[1,2-b]pyridazine-3-carboxamide] | < 10 nM | 10 to 100 nM | –
2 | CNc1cc(Nc2cccc3c2OCCC3)nn2c(C(=O)NC(C)c3ncco3)cnc12 (single isomer, unassigned) [Compound 22b] | – | < 10 nM | < 10 nM
3 | CNc1cc(Nc2cccn(CC3CCCO3)c2=O)nn2c(C(=O)N[C@@H]3C[C@@H]3F)cnc12 (stereo partly shown) [Compound 107] | 10 to 100 nM | 10 to 100 nM | –
4 | CNc1cc(Nc2cccn([C@H]3CC[C@@H](OC)CC3)c2=O)nn2c(C(=O)N[C@@H]3C[C@@H]3F)cnc12 [Compound 70] | 10 to 100 nM | 10 to 100 nM | –
5 | CNc1cc(Nc2cccn([C@@H]3C[C@H]4CCO[C@H]43)c2=O)nn2c(C(=O)NC3CCC4CCOC43)cnc12 (single isomer, unassigned) [Compound 95a] | – | 10 to 100 nM | < 10 nM
6 | [2H]C([2H])([2H])Nc1cc(Nc2cccn(C3CC4(CCCO4)C3)c2=O)nn2c(C(=O)N[C@@H]3C[C@H]4CCO[C@H]43)cnc12 (single isomer, unassigned) [Compound 98a] | 10 to 100 nM | 10 to 100 nM | –
7 | CNc1cc(Nc2cccn(-c3ccccc3F)c2=O)nn2c(C(=O)N[C@H]3C[C@@H]4CCO[C@@H]43)cnc12 [Compound 45] | ≥ 1000 nM | 100 to 1000 nM | –
8 | CNc1cc(Nc2cccc(C)n2)nc2c(C(=O)NC3CCn4ncnc43)cnn12 (racemic) [Compound 33] | < 10 nM | 10 to 100 nM | –
9 | CNc1cc(Nc2cccn([C@H]3C[C@H](OC)C3)c2=O)nn2c(C(=O)NC3CCC4CCOC43)cnc12 (single isomer, unassigned) [Compound 88a] | – | 10 to 100 nM | < 10 nM
10 | CNc1cc(Nc2cccn([C@H]3C[C@H](OC)C3)c2=O)nn2c(C(=O)NC3CCC4CCOC43)cnc12 (single isomer, unassigned) [Compound 88b] | – | 100 to 1000 nM | 100 to 1000 nM
11 | CNc1cc(Nc2cccn(-c3ccccn3)c2=O)nn2c(C(=O)NC3CCC4CCOC43)cnc12 (racemic) [Compound 10a, N-(hexahydro-2H-cyclopenta[b]furan-6-yl)-8-(methylamino)-6-((2-oxo-2H-[1,2′-bipyridin]-3-yl)amino)imidazo[1,2-b]pyridazine-3-carboxamide] | – | 10 to 100 nM | 10 to 100 nM
12 | CNc1cc(Nc2cccc3c2OCCC3)nn2c(C(=O)NC(C)c3ncco3)cnc12 (single isomer, unassigned) [Compound 22a] | – | > 1000 nM | ≥ 1000 nM
13 | [2H]C([2H])([2H])Nc1cc(Nc2cccn(C3CC4(CCCO4)C3)c2=O)nn2c(C(=O)N[C@@H]3C[C@@H]3F)cnc12 (single isomer, unassigned) [Compound 104b] | – | 10 to 100 nM | 10 to 100 nM
14 | CNc1cc(Nc2cccn(C3C[C@H]4CC[C@@H](C3)O4)c2=O)nn2c(C(=O)N[C@@H]3C[C@@H]3F)cnc12 (single isomer, unassigned) [Compound 79b] | – | 10 to 100 nM | < 10 nM
15 | [2H]C([2H])([2H])Nc1cc(Nc2cccn(C3CC4OCCC43)c2=O)nn2c(C(=O)N[C@@H]3C[C@H]4CCO[C@H]43)cnc12 (single isomer, unassigned) [Compound 94b] | – | 10 to 100 nM | 10 to 100 nM
16 | [2H]C([2H])([2H])Nc1cc(Nc2cccn(C3CC4(CCOC4)C3)c2=O)nn2c(C(=O)N[C@@H]3C[C@H]4CCO[C@H]43)cnc12 (single isomer, unassigned) [Compound 96b] | – | 10 to 100 nM | 10 to 100 nM
17 | CNc1cc(Nc2cccn(-c3ccccc3F)c2=O)nn2c(C(=O)N[C@@H]3C[C@H]4CCO[C@H]43)cnc12 [Compound 44] | < 10 nM | 10 to 100 nM | –
